# Key:
# A2780 cells = assay: Cell proliferation assay (A2780); format: cell-based; settings: Homo sapiens, 168 h, 7 days
# [1] = tested on: Poly/Mono-ADP Ribose in U2OS cells; assay: PAR in cell western assay (parylation) in U2OS cells; format: cell-based; settings: Homo sapiens; U2OS cells, 6 hrs, 2 mM H2O2; read-out: Parylation (U2OS)
# In short: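 U2OS cells treated with compound for 6 h, then 2 mM H2O2 for 10 min to induce DNA damage. After methanol fixation, cells stained overnight at 4 °C with anti-mono/poly-ADP-ribose antibody and imaged by infrared in-cell western, normalized to CellTag 700; reported as % control inhibition.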
# MDA-MB-436 cells = assay: Cell proliferation assay (MDA-MB-436); format: cell-based; settings: Homo sapiens, 168 h, 7 days
# PARP1 [2] = target: T1, PARP1 (Homo sapiens, UniProt P09874); assay: PARP trapping assay in U2OS cells; format: cell-based; design: endogenous in cells; host or cells: U2OS; settings: U2OS cells, MMS, 4 hrs; read-out: PARP Trapping (U2OS)
# In short: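 U2OS cells co-treated with compounds and MMS for 4 h, then soluble proteins extracted with 0.5% Triton X-100, MeOH-fixed and immunostained for PARP1. Chromatin-bound PARP1 quantified as AF488 intensity per DAPI-segmented nucleus; potencies reported as letter-code bins.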
# Target sequence in this assay (P09874 whole entry): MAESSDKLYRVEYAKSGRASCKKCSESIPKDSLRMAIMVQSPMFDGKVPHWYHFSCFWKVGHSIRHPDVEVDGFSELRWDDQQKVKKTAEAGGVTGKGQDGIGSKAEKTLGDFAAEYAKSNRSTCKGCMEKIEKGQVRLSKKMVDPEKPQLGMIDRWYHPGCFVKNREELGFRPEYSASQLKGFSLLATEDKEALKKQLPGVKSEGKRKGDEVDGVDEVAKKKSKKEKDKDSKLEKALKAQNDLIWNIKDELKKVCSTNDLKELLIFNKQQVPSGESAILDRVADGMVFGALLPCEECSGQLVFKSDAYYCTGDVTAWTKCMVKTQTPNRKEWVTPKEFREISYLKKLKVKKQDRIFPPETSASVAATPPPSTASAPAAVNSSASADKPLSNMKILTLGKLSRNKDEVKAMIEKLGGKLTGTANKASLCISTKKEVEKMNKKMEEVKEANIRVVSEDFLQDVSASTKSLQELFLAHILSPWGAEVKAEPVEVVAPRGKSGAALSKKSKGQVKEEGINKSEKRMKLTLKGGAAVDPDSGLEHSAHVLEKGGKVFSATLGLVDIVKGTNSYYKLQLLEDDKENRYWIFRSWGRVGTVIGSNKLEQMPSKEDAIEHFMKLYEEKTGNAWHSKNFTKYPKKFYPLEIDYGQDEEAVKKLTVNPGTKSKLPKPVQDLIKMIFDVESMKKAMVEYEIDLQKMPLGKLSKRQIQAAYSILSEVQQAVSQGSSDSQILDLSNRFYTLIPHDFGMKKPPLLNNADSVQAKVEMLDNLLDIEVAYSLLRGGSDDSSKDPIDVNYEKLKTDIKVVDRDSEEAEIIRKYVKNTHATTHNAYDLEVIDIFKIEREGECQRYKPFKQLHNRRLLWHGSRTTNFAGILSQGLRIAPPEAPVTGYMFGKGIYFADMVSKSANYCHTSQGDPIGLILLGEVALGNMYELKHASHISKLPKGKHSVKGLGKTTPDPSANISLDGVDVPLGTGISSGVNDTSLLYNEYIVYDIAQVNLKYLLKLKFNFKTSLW
# HCC1806 cells = assay: Cell proliferation assay (HCC1806); format: cell-based; settings: Homo sapiens, 168 h, 7 days
# PARP1 [3] = target: T1, PARP1; assay: PARP1-enzyme assay (NAD/NADH-Glo biochemical assay); settings: recombinant PARP1, NAD+ consumption
# Experimental: The PARP enzyme catalyzes the transfer of ADP-Ribose from NAD+ onto PAR chains/histone substrates. The catalytic cycle is monitored indirectly with the NAD/NADH-Glo Assay kit from Promega. […] NAD+ consumed is determined by comparison to the no enzyme control.
# • Recombinant PARP1 • NAD+/NAHD-Glow assay Kit • Activated DNA, 10 μg/mL • NAD+(Nicotinamide Adenine Dinucleotide), 500 nM • Protein substrate for PARP1: Core Histone from chicken, 10 μg/mL
# The letter codes for the PARP1-enzyme assay include: A (<1 nM), B (>1-10 nM), C (>10-100 nM), D (>100-1000 nM), E (>1000 nM), and “-” is not tested. The letter codes for the PARP trapping assay, and parylation assay include: A (<10 nM), B (>10-100 nM), C (>100-1000 nM), […], E (>10000 nM), and “-” is not tested.
# Target sequence in this assay (P09874 whole entry, species assumed): as the sequence (P09874 whole entry) above
Compound,IC50 (A2780 cells) [nM],IC50 [1] [nM],IC50 (MDA-MB-436 cells) [nM],IC50 (PARP1 [2]) [nM],IC50 (HCC1806 cells) [nM],IC50 (PARP1 [3]) [nM]
O=C(N[C@@H](C(=O)N1CCN(CC2CCN(CC(=O)N3CCN(C(=O)c4cc(Cc5n[nH]c(=O)c6ccccc56)ccc4F)CC3)CC2)CC1)C1CCCCC1)c1cccc(C2CCCN(C(=O)C3CC3)C2)c1 (stereo partly shown) [Compound I-962],100 to 1000,10 to 100,10 to 100,100 to 1000,100 to 1000,< 1
CCc1cccc(-c2cnc(C(=O)N3CCC(CN4CCN(CC(=O)N5CCN(C(=O)c6cc(Cc7n[nH]c(=O)c8ccccc78)ccc6F)CC5)CC4)CC3)c(NC(C)=O)c2)c1 [Compound I-367],100 to 1000,100 to 1000,100 to 1000,100 to 1000,100 to 1000,< 1
CCOc1cc(OC)ccc1CNCC(=O)N1CCCC(c2cccc(C(=O)N[C@@H](C(=O)N3CCN(CC4CCN(CC(=O)N5CCN(C(=O)c6cc(Cc7n[nH]c(=O)c8ccccc78)ccc6F)CC5)CC4)CC3)C3CCCCC3)c2)C1 (stereo partly shown) [Compound I-28],1000 to 10000,100 to 1000,10 to 100,100 to 1000,100 to 1000,< 1
CC(C)(C)OC(=O)N[C@@H](C(=O)N1CCC(OC2CCN(CC(=O)N3CCN(C(=O)c4cc(Cc5n[nH]c(=O)c6ccccc56)ccc4F)CC3)CC2)CC1)C1CCCCC1 [Compound I-787],10 to 100,10 to 100,< 10,10 to 100,10 to 100,< 1
CCc1cccc(-c2cc(F)c(C(=O)N3CCC(CN4CCN(CC(=O)N5CCN(C(=O)c6cc(Cc7n[nH]c(=O)c8ccccc78)ccc6F)CC5)CC4)CC3)c(F)c2)c1 [Compound I-410],10 to 100,10 to 100,< 10,10 to 100,10 to 100,< 1
O=C(N[C@@H](C(=O)N1CCC(OC2CCN(CC(=O)N3CCN(C(=O)c4cc(Cc5n[nH]c(=O)c6ccccc56)ccc4F)CC3)CC2)CC1)C1CCCCC1)c1cccc(C2CCCN(C(=O)C3CC3)C2)c1F (stereo partly shown) [Compound I-457],10 to 100,100 to 1000,< 10,10 to 100,10 to 100,< 1
O=C(NC(C(=O)N1CCC(OC2CCN(CC(=O)N3CCN(C(=O)c4cc(Cc5n[nH]c(=O)c6ccccc56)ccc4F)CC3)CC2)CC1)C1CCCCC1)c1cccc(C2CCCN(C(=O)CNCc3ccc(F)cc3F)C2)c1 (stereo not shown) [Compound I-369],10 to 100,10 to 100,< 10,100 to 1000,100 to 1000,< 1
CCc1cccc(-c2cnc(C(=O)NCCOCCNCC(=O)N3CCN(C(=O)c4cc(Cc5n[nH]c(=O)c6ccccc56)ccc4F)CC3)c(NC(C)=O)c2)c1 [Compound I-403],10 to 100,10 to 100,< 10,100 to 1000,10 to 100,< 1
CCc1cccc(-c2cnc(C(=O)N3CCC(CN4CCN(CC(=O)N5CCN(C(=O)c6cc(Cc7n[nH]c(=O)c8ccccc78)ccc6F)CC5)CC4)CC3)c(N)c2)c1 [Compound I-366],100 to 1000,100 to 1000,100 to 1000,100 to 1000,100 to 1000,< 1
CCOc1cc(OC)ccc1CNCC(=O)N1CCC[C@H](c2cccc(C(=O)N[C@@H](C(=O)N3CCN(CC4CCN(CC(=O)N5CCN(C(=O)c6cc(Cc7n[nH]c(=O)c8ccccc78)ccc6F)CC5)CC4)CC3)C3CCCCC3)c2)C1 [Compound I-167],–,100 to 1000,100 to 1000,10 to 100,< 10,< 1
Cc1sc(CN2CCCC2c2nnc3n2CCCCC3)nc1C12CC(C(=O)NCCOCCOCCOCCOCCNCC(=O)N3CCN(C(=O)c4cc(Cc5n[nH]c(=O)c6ccccc56)ccc4F)CC3)(C1)C2 (stereo not shown) [Compound I-195],–,10 to 100,100 to 1000,1000 to 10000,< 10,< 1
COC12CCC(CNCC(=O)N3CCCC(c4cccc(C(=O)N[C@@H](C(=O)N5CCC(CN6CCN(CC(=O)N7CCN(C(=O)c8cc(Cc9n[nH]c(=O)c%10ccccc9%10)ccc8F)CC7)CC6)CC5)C5CCCCC5)c4)C3)(CC1)OC2 (stereo partly shown) [Compound I-165],–,100 to 1000,10 to 100,100 to 1000,< 10,< 1
CCc1cccc(-c2cnc(C(=O)NCCOCCNCC(=O)N3CCN(C(=O)c4cc(Cc5n[nH]c(=O)c6ccccc56)ccc4F)CC3)c(NC(=O)CNCc3cccc(C)c3)c2)c1 [Compound I-63],10 to 100,100 to 1000,100 to 1000,100 to 1000,100 to 1000,< 1
Cc1sc(CN2CCCC2c2nnc3n2CCCCC3)nc1C12CC(C(=O)NCCOCCOCCOCCNCC(=O)N3CCN(C(=O)c4cc(Cc5n[nH]c(=O)c6ccccc56)ccc4F)CC3)(C1)C2 (stereo not shown) [Compound I-194],–,100 to 1000,100 to 1000,> 10000,< 10,< 1
CCOc1cc(OC)ccc1CNCC(=O)N1CCCC(c2cccc(C(=O)N[C@@H](C(=O)N3CCN(CC45CCC(C(=O)N6CCN(C(=O)c7cc(Cc8n[nH]c(=O)c9ccccc89)ccc7F)CC6)(CC4)CO5)CC3)C3CCCCC3)c2)C1 (stereo partly shown) [Compound I-166],–,100 to 1000,10 to 100,10 to 100,< 10,< 1

# Reference: patent US20250127907A1, “PARP INHIBITORS” (Stablix, Inc., priority 2023, published 2025)
